Experimental data reported in PubChem BioAssay (NCI).
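A five-concentration, 48-hour dose response in 96-well plates underlies each endpoint, interpolated linearly between surrounding concentrations. Abbreviation: GI50, concentration required for 50% inhibition of growth. TGI marks complete inhibition of growth.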

Key:
Assay in all cases: NCI tumour cell line growth inhibition, 48 h
NCI-H226 lung = test system: NCI-H226 lung
NCI-H23 lung = test system: NCI-H23 lung
NCI-H460 lung = test system: NCI-H460 lung
NCI-H522 lung = test system: NCI-H522 lung
NCI/ADR-RES ovarian = test system: NCI/ADR-RES ovarian
OVCAR-3 ovarian = test system: OVCAR-3 ovarian
OVCAR-5 ovarian = test system: OVCAR-5 ovarian
OVCAR-8 ovarian = test system: OVCAR-8 ovarian
PC-3 prostate = test system: PC-3 prostate
RXF 393 renal = test system: RXF 393 renal
SF-268 CNS = test system: SF-268 CNS
SF-295 CNS = test system: SF-295 CNS
SK-MEL-2 melanoma = test system: SK-MEL-2 melanoma
SK-MEL-28 melanoma = test system: SK-MEL-28 melanoma
SK-MEL-5 melanoma = test system: SK-MEL-5 melanoma
SN12C renal = test system: SN12C renal
SNB-19 CNS = test system: SNB-19 CNS
SW-620 colon = test system: SW-620 colon
T-47D breast = test system: T-47D breast
TK-10 renal = test system: TK-10 renal
U251 CNS = test system: U251 CNS
UACC-257 melanoma = test system: UACC-257 melanoma
UACC-62 melanoma = test system: UACC-62 melanoma
UO-31 renal = test system: UO-31 renal

O=C(NNC(=O)C1CCN(S(=O)(=O)c2ccc(-c3ccccc3)cc2)CC1)c1ccc(C(F)(F)F)cc1
GI50 (NCI-H226 lung): 14.6 µM
TGI (NCI-H226 lung): > 50 µM
GI50 (NCI-H23 lung): 14.1 µM
TGI (NCI-H23 lung): > 50 µM
GI50 (NCI-H460 lung): > 50 µM
TGI (NCI-H460 lung): > 50 µM
GI50 (NCI-H522 lung): > 50 µM
TGI (NCI-H522 lung): > 50 µM
GI50 (NCI/ADR-RES ovarian): > 50 µM
TGI (NCI/ADR-RES ovarian): > 50 µM
GI50 (OVCAR-3 ovarian): > 50 µM
TGI (OVCAR-3 ovarian): > 50 µM
GI50 (OVCAR-5 ovarian): > 50 µM
TGI (OVCAR-5 ovarian): > 50 µM
GI50 (OVCAR-8 ovarian): 22 µM
TGI (OVCAR-8 ovarian): > 50 µM
GI50 (PC-3 prostate): > 50 µM
TGI (PC-3 prostate): > 50 µM
GI50 (RXF 393 renal): 20.3 µM
TGI (RXF 393 renal): > 50 µM
GI50 (SF-268 CNS): > 50 µM
TGI (SF-268 CNS): > 50 µM
GI50 (SF-295 CNS): > 50 µM
TGI (SF-295 CNS): > 50 µM
GI50 (SK-MEL-2 melanoma): > 50 µM
TGI (SK-MEL-2 melanoma): > 50 µM
GI50 (SK-MEL-28 melanoma): > 50 µM
TGI (SK-MEL-28 melanoma): > 50 µM
GI50 (SK-MEL-5 melanoma): > 50 µM
TGI (SK-MEL-5 melanoma): > 50 µM
GI50 (SN12C renal): 21.4 µM
TGI (SN12C renal): > 50 µM
GI50 (SNB-19 CNS): 15.4 µM
TGI (SNB-19 CNS): > 50 µM
GI50 (SW-620 colon): > 50 µM
TGI (SW-620 colon): > 50 µM
GI50 (T-47D breast): 3.99 µM
TGI (T-47D breast): > 50 µM
GI50 (TK-10 renal): 20.8 µM
TGI (TK-10 renal): > 50 µM
GI50 (U251 CNS): 11.8 µM
TGI (U251 CNS): > 50 µM
GI50 (UACC-257 melanoma): > 50 µM
TGI (UACC-257 melanoma): > 50 µM
GI50 (UACC-62 melanoma): > 50 µM
TGI (UACC-62 melanoma): > 50 µM
GI50 (UO-31 renal): > 50 µM
TGI (UO-31 renal): > 50 µM
